Patent US10981894B2, “Melanocortin subtype-2 receptor (MC2R) antagonists and uses thereof” (Crinetics Pharmaceuticals, Inc., priority 2018, dated 2021)

Biological target: hMC2 receptor (Homo sapiens, UniProt Q01718)
Experiment: hMC2 membrane binding assay ([125I]ACTH (1-39) Tyr23, SPA)
Parameters: scale not given here
Details: crude hMC2R membranes from CRE-bla-CHO-K1 cells expressing hMC2 receptor and hMRAP; [125I]ACTH (1-39) Tyr23 0.2 nM; 1.5 hours at room temperature; read-out: MC2R binding potency
Summary of the method: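 Ki comes from non-linear regression of SPA scintillation counts. Displacement of 0.2 nM [125I]ACTH(1-39) Tyr23 by compound dose series (usually 0–10,000 nM final) ran 1.5 h at room temperature. Membranes came from CHO-K1 CRE-bla cells stably expressing hMC2R plus hMRAP, bead-coupled in pH 7.4 buffer with 0.2% BSA.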

hMC2 receptor, sequence (Q01718 whole entry): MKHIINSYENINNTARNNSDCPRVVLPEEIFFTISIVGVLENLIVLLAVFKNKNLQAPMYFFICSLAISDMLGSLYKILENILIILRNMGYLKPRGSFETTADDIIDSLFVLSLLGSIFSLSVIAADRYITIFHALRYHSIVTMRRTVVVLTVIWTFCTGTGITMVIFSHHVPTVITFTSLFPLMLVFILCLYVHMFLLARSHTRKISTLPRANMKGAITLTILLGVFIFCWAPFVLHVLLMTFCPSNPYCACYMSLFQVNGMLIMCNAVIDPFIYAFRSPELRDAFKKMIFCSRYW
hMC2 receptor, sequence (Q8TCY5 whole entry partner): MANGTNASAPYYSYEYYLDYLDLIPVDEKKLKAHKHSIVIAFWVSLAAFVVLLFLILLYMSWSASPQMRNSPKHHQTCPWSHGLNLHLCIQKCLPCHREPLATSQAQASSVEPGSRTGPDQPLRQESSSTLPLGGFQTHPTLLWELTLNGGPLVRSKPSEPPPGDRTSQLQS

Structure (SMILES) | Ki [nM]
CCOc1ncccc1-c1ccc(N2CCN(C(=O)N3CCC[C@H]3C(F)(F)F)C[C@H]2CC)c(C(=O)NC[C@H]2CCN2C)n1 [Compound 1-386, 2′-ethoxy-5-[(2R)-2-ethyl-4-[(2S)-2-(trifluoromethyl)pyrrolidine-1-carbonyl]piperazin-1-yl]-N-{[(2R)-1-methylazetidin-2-yl]methyl}-[2,3′-bipyridine]-6-carboxamide] | 10 to 100
CCOc1ncccc1-c1ccc(N2CCN(C(=O)C3(C(F)(F)F)CCC3)C[C@H]2CC)c(C(=O)NC[C@@H]2CCN2C)n1 [Compound 1-390, 2′-ethoxy-5-[(2R)-2-ethyl-4-[1-(trifluoromethyl)cyclobutanecarbonyl]piperazin-1-yl]-N-{[(2S)-1-methylazetidin-2-yl]methyl}-[2,3′-bipyridine]-6-carboxamide] | 10 to 100
CCOc1ncccc1-c1ccc(N2CCN(C(=O)OC3(CC)CCCC3)C[C@H]2CC)c(C(=O)N[C@@H]2CCN(C)C2)n1 [Compound 1-397, 1-ethylcyclopentyl (3R)-4-(2′-ethoxy-6-{[(3R)-1-methylpyrrolidin-3-yl]carbamoyl}-[2,3′-bipyridin]-5-yl)-3-ethylpiperazine-1-carboxylate] | < 10
CCOc1ncccc1-c1ccc(N2CCN(C(=O)c3ccc(Cl)cc3C(F)(F)F)C[C@H]2CC)c(C(=O)N[C@@H]2CN3CCC2CC3)n1 [Compound 1-398, N-[(3S)-1-azabicyclo[2.2.2]octan-3-yl]-5-[(2R)-4-[4-chloro-2-(trifluoromethyl)benzoyl]-2-ethylpiperazin-1-yl]-2′-ethoxy-[2,3′-bipyridine]-6-carboxamide] | < 10
CCOc1ccccc1-c1ccc(N2CCN(C(=O)C3(C(F)(F)F)CCCC3)C[C@H]2CC)c(C(=O)NC2CN(C)C2)n1 [Compound 1-399, 6-(2-ethoxyphenyl)-3-[(2R)-2-ethyl-4-[1-(trifluoromethyl)cyclopentanecarbonyl]piperazin-1-yl]-N-(1-methylazetidin-3-yl)pyridine-2-carboxamide] | < 10
CCOc1ncccc1-c1ccc(N2CCN(C(=O)C3(C(F)(F)F)CCCC3)C[C@H]2CC)c(C(=O)N[C@@H]2CN3CCC2CC3)n1 [Compound 1-400, N-[(3S)-1-azabicyclo[2.2.2]octan-3-yl]-2′-ethoxy-5-[(2R)-2-ethyl-4-[1-(trifluoromethyl)cyclopentanecarbonyl]piperazin-1-yl]-[2,3′-bipyridine]-6-carboxamide] | < 10
CCOc1ccccc1-c1ccc(N2CCN(C(=O)C3(C(F)(F)F)CCCC3)C[C@H]2CC)c(C(=O)N[C@H]2CCN(C)C2)n1 [Compound 1-401, 6-(2-ethoxyphenyl)-3-[(2R)-2-ethyl-4-[1-(trifluoromethyl)cyclopentanecarbonyl]piperazin-1-yl]-N-[(3S)-1-methylpyrrolidin-3-yl]pyridine-2-carboxamide] | < 10
CCOc1ccccc1-c1ccc(N2CCN(C(=O)N3CCc4cccc(C(F)(F)F)c43)C[C@H]2CC)c(C(=O)N[C@H]2CCN(C)C2)n1 [Compound 1-402, 6-(2-ethoxyphenyl)-3-[(2R)-2-ethyl-4-[7-(trifluoromethyl)-2,3-dihydro-1H-indole-1-carbonyl]piperazin-1-yl]-N-[(3S)-1-methylpyrrolidin-3-yl]pyridine-2-carboxamide] | < 10
CCOc1ncccc1-c1ccc(N2CCN(C(=O)O[C@@H](C(C)(C)C)C(F)(F)F)C[C@H]2CC)c(C(=O)N[C@@H]2CN3CCC2CC3)n1 [Compound 1-403, (2S)-1,1,1-trifluoro-3,3-dimethylbutan-2-yl (3R)-4-(6-{[(3S)-1-azabicyclo[2.2.2]octan-3-yl]carbamoyl}-2′-ethoxy-[2,3′-bipyridin]-5-yl)-3-ethylpiperazine-1-carboxylate; or (2R)-1,1,1-trifluoro-3,3-dimethylbutan-2-yl (3R)-4-(6-{[(3S)-1-azabicyclo[2.2.2]octan-3-yl]carbamoyl}-2′-ethoxy-[2,3′-bipyridin]-5-yl)-3-ethylpiperazine-1-carboxylate] | < 10
CCOc1ncccc1-c1ccc(N2CCN(C(=O)N3CCc4cccc(C#N)c43)C[C@H]2CC)c(C(=O)N[C@H]2CCN(C)C2)n1 [Compound 1-404, 5-[(2R)-4-(7-cyano-2,3-dihydro-1H-indole-1-carbonyl)-2-ethylpiperazin-1-yl]-2′-ethoxy-N-[(3S)-1-methylpyrrolidin-3-yl]-[2,3′-bipyridine]-6-carboxamide] | < 10
CCOc1ncccc1-c1ccc(N2CCN(C(=O)C3(C(F)(F)F)CCCC3)C[C@H]2CC)c(C(=O)NC23CCN(CC2)C3)n1 [Compound 1-405, N-{1-azabicyclo[2.2.1]heptan-4-yl}-2′-ethoxy-5-[(2R)-2-ethyl-4-[1-(trifluoromethyl)cyclopentanecarbonyl]piperazin-1-yl]-[2,3′-bipyridine]-6-carboxamide] | < 10
CCOc1ncccc1-c1ccc(N2CCN(C(=O)OC(c3ccccc3)C(C)(C)C)C[C@H]2CC)c(C(=O)N[C@@H]2CCN(C)C2)n1 (stereo partly drawn) [Compound 1-408, 2,2-dimethyl-1-phenylpropyl (3R)-4-(2′-ethoxy-6-{[(3R)-1-methylpyrrolidin-3-yl]carbamoyl}-[2,3′-bipyridin]-5-yl)-3-ethylpiperazine-1-carboxylate] | < 10
CCOc1ncccc1-c1ccc(N2CCN(C(=O)N3CCc4cccc(C#N)c43)C[C@H]2CC)c(C(=O)NC2CN(C)C2)n1 [Compound 1-409, 5-[(2R)-4-(7-cyano-2,3-dihydro-1H-indole-1-carbonyl)-2-ethylpiperazin-1-yl]-2′-ethoxy-N-(1-methylazetidin-3-yl)-[2,3′-bipyridine]-6-carboxamide] | < 10
CCOc1ccccc1-c1ccc(N2CCN(C(=O)C3(C(F)(F)F)CCC3)C[C@H]2CC)c(C(=O)N[C@@H]2CN3CCC2CC3)n1 [Compound 1-410, N-[(3S)-1-azabicyclo[2.2.2]octan-3-yl]-6-(2-ethoxyphenyl)-3-[(2R)-2-ethyl-4-[1-(trifluoromethyl)cyclobutanecarbonyl]piperazin-1-yl]pyridine-2-carboxamide] | < 10

The next lines start with the values.

Ki [nM] | Structure (SMILES)
< 10 | CCOc1ncccc1-c1ccc(N2CCN(C(=O)N3CCc4cccc(C#N)c43)C[C@H]2CC)c(C(=O)N[C@@H]2CCN(C)C2)n1 [Compound 1-383, 5-[(2R)-4-(7-cyano-2,3-dihydro-1H-indole-1-carbonyl)-2-ethylpiperazin-1-yl]-2′-ethoxy-N-[(3R)-1-methylpyrrolidin-3-yl]-[2,3′-bipyridine]-6-carboxamide]
< 10 | CCOc1ncccc1-c1ccc(N2CCN(C(=O)C34CCC(C(F)(F)F)(CC3)C4)C[C@H]2CC)c(C(=O)N[C@@H]2CCN(C)C2)n1 [Compound 1-385, 2′-ethoxy-5-[(2R)-2-ethyl-4-[4-(trifluoromethyl)bicyclo[2.2.1]heptane-1-carbonyl]piperazin-1-yl]-N-[(3R)-1-methylpyrrolidin-3-yl]-[2,3′-bipyridine]-6-carboxamide]
< 10 | CCOc1ccccc1-c1ccc(N2CCN(C(=O)N3CCC[C@H]3C(F)(F)F)C[C@H]2CC)c(C(=O)NC[C@@H]2CCN2C)n1 [Compound 1-387, 6-(2-ethoxyphenyl)-3-[(2R)-2-ethyl-4-[(2S)-2-(trifluoromethyl)pyrrolidine-1-carbonyl]piperazin-1-yl]-N-{[(2S)-1-methylazetidin-2-yl]methyl}pyridine-2-carboxamide]
< 10 | CCOc1ccccc1-c1ccc(N2CCN(C(=O)C34CCC(C(F)(F)F)(CC3)C4)C[C@H]2CC)c(C(=O)N[C@@H]2CCN(C)C2)n1 [Compound 1-388, 6-(2-ethoxyphenyl)-3-[(2R)-2-ethyl-4-[4-(trifluoromethyl)bicyclo[2.2.1]heptane-1-carbonyl]piperazin-1-yl]-N-[(3R)-1-methylpyrrolidin-3-yl]pyridine-2-carboxamide]
< 10 | CCOc1ncccc1-c1ccc(N2CCN(C(=O)N3CCc4cccc(C(F)(F)F)c43)C[C@H]2CC)c(C(=O)N[C@H]2CCN(C)C2)n1 [Compound 1-389, 2′-ethoxy-5-[(2R)-2-ethyl-4-[7-(trifluoromethyl)-2,3-dihydro-1H-indole-1-carbonyl]piperazin-1-yl]-N-[(3S)-1-methylpyrrolidin-3-yl]-[2,3′-bipyridine]-6-carboxamide]
< 10 | CCOc1ncccc1-c1ccc(N2CCN(C(=O)N3CCC[C@H]3C(F)(F)F)C[C@H]2CC)c(C(=O)NC[C@@H]2CCN2C)n1 [Compound 1-391, 2′-ethoxy-5-[(2R)-2-ethyl-4-[(2S)-2-(trifluoromethyl)pyrrolidine-1-carbonyl]piperazin-1-yl]-N-{[(2S)-1-methylazetidin-2-yl]methyl}-[2,3′-bipyridine]-6-carboxamide]
< 10 | CCOc1ccccc1-c1ccc(N2CCN(C(=O)N3CCc4cccc(C#N)c43)C[C@H]2CC)c(C(=O)N[C@@H]2CCN(C)C2)n1 [Compound 1-393, 3-[(2R)-4-(7-cyano-2,3-dihydro-1H-indole-1-carbonyl)-2-ethylpiperazin-1-yl]-6-(2-ethoxyphenyl)-N-[(3R)-1-methylpyrrolidin-3-yl]pyridine-2-carboxamide]
< 10 | CCOc1ncccc1-c1ccc(N2CCN(C(=O)C34CCC(C(F)(F)F)(CC3)C4)C[C@H]2CC)c(C(=O)NC2CN(C)C2)n1 [Compound 1-394, 2′-ethoxy-5-[(2R)-2-ethyl-4-[4-(trifluoromethyl)bicyclo[2.2.1]heptane-1-carbonyl]piperazin-1-yl]-N-(1-methylazetidin-3-yl)-[2,3′-bipyridine]-6-carboxamide]
< 10 | CCOc1ncccc1-c1ccc(N2CCN(C(=O)C34CCC(C(F)(F)F)(CC3)C4)C[C@H]2CC)c(C(=O)NCC2CN(C)C2)n1 [Compound 1-395, 2′-ethoxy-5-[(2R)-2-ethyl-4-[4-(trifluoromethyl)bicyclo[2.2.1]heptane-1-carbonyl]piperazin-1-yl]-N-[(1-methylazetidin-3-yl)methyl]-[2,3′-bipyridine]-6-carboxamide]
